Reference: ChEMBL document CHEMBL5584348, “Exploring Degradation of Intrinsically Disordered Protein Yes-Associated Protein Induced by Proteolysis TArgeting Chimeras” (J Med Chem, 2024)
pIC50: −log10 of the molar value. Activity calls are given as the source filed them. The rule behind the calls is not given here.

Legend:
NCI-H2452 = assay: Antiproliferative activity against human NCI-H2452 cells expressing NF2 assessed as reduction in cell viability incubated for 4 days by CCK-8 assay; assay type: functional, cell-based; settings: time 4.0 day
[1] = target: T1, von Hippel-Lindau disease tumor suppressor/Transcriptional coactivator YAP1 (Homo sapiens, UniProt P40337+P46937); assay: PROTAC activity at YAP/VHL in human Huh-7 cells assessed as induction of YAP degradation incubated for 48 hrs by Western blot analysis; assay type: cell-based
Target sequence in this assay (P40337 whole entry): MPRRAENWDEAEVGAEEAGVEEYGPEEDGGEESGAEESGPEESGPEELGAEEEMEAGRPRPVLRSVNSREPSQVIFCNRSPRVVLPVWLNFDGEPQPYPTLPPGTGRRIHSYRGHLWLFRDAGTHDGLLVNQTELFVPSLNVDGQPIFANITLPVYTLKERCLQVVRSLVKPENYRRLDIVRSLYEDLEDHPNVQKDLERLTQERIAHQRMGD
Target sequence in this assay (P46937 whole entry): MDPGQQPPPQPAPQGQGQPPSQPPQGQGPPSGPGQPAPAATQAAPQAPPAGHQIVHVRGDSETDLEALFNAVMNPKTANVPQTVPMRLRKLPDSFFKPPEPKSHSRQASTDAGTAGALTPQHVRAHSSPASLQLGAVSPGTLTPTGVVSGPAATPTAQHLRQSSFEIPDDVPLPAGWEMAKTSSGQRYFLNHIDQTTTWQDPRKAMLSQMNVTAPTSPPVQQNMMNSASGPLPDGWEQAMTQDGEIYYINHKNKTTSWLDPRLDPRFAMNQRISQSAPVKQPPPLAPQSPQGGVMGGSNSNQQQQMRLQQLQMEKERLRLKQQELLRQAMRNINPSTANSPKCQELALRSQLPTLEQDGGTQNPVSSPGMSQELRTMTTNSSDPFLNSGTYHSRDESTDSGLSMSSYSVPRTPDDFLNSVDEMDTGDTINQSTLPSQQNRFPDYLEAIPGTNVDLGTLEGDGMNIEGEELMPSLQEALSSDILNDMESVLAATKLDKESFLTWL

NCI-H226 [2] = assay: Antiproliferative activity against human NCI-H226 cells assessed as cell killing at 10 uM incubated for 3 days by CCK-8 assay; assay type: functional, cell-based; settings: time 3.0 day
[3] = target: T1, von Hippel-Lindau disease tumor suppressor/Transcriptional coactivator YAP1; assay: PROTAC activity at YAP/VHL in human NCI-H226 cells assessed as reduction in YAP level at 10 uM incubated for 48 hrs by Western blot analysis relative to control; assay type: cell-based; parameters: scale not given: the % may be the effect or the level left
Target sequence in this assay (P40337 whole entry, looked up): as the sequence (P40337 whole entry) above
Target sequence in this assay (P46937 whole entry, looked up): as the sequence (P46937 whole entry) above

[4] = target: T1, von Hippel-Lindau disease tumor suppressor/Transcriptional coactivator YAP1; assay: PROTAC activity at YAP/VHL in human NCI-H226 cells assessed as induction of YAP degradation incubated for 48 hrs by Western blot analysis; assay type: cell-based
Target sequence in this assay (P40337 whole entry): as the sequence (P40337 whole entry) above
Target sequence in this assay (P46937 whole entry): as the sequence (P46937 whole entry) above

[5] = target: T1, von Hippel-Lindau disease tumor suppressor/Transcriptional coactivator YAP1; assay: PROTAC activity at YAP/VHL in human NCI-H226 cells assessed as induction of YAP degradation at 2.5 to 20 uM incubated for 48 hrs by Western blot analysis relative to control; assay type: cell-based; settings: dose 2.5-20 µM
Target sequence in this assay (P40337 whole entry, looked up): as the sequence (P40337 whole entry) above
Target sequence in this assay (P46937 whole entry, looked up): as the sequence (P46937 whole entry) above

[6] = target: T1, von Hippel-Lindau disease tumor suppressor/Transcriptional coactivator YAP1; assay: PROTAC activity at YAP/VHL in human NCI-H226 cells assessed as reduction in CTGF expression incubated for 48 hrs by Western blot analysis; assay type: cell-based; settings: dose 2.5-20 µM
Target sequence in this assay (P40337 whole entry, looked up): as the sequence (P40337 whole entry) above
Target sequence in this assay (P46937 whole entry, looked up): as the sequence (P46937 whole entry) above

[7] = target: T1, von Hippel-Lindau disease tumor suppressor/Transcriptional coactivator YAP1; assay: PROTAC activity at YAP/VHL in human NCI-H226 cells assessed as reduction in CTGF expression at 5 uM incubated for 48 hrs by Western blot analysis; assay type: cell-based
Target sequence in this assay (P40337 whole entry, looked up): as the sequence (P40337 whole entry) above
Target sequence in this assay (P46937 whole entry, looked up): as the sequence (P46937 whole entry) above

NCI-H226 [8] = assay: Antiproliferative activity against NF2 deficient- human NCI-H226 cells assessed as cell growth inhibition incubated for 4 days by CCK-8 assay; assay type: functional, cell-based; settings: NCI-H226, 96 h
NCI-H226 [9] = assay: Antiproliferative activity against NF2 deficient- human NCI-H226 cells assessed as maximum cell growth inhibition incubated for 4 days by CCK-8 assay relative to control; assay type: functional; settings: time 4 day
Huh-7 [10] = assay: Antiproliferative activity against human Huh-7 cells overexpressing YAP assessed as cell growth inhibition incubated for 4 days by CCK-8 assay; assay type: functional, cell-based; settings: Huh-7, 96 h
AML12 = assay: Antiproliferative activity against mouse AML12 cells assessed as suppression of cell proliferation incubated for 4 days by CCK-8 assay; assay type: toxicity, cell-based; settings: aml12, 96 h, time 4 day
[11] = target: T1, von Hippel-Lindau disease tumor suppressor/Transcriptional coactivator YAP1; assay: PROTAC activity at YAP/VHL in human Huh-7 cells assessed as reduction on CTGF expression incubated for 48 hrs by Western blot analysis; assay type: cell-based; settings: dose 2.5-20 µM
Target sequence in this assay (P40337 whole entry, looked up): as the sequence (P40337 whole entry) above
Target sequence in this assay (P46937 whole entry, looked up): as the sequence (P46937 whole entry) above

[12] = target: T2, von Hippel-Lindau disease tumor suppressor/WW domain-containing transcription regulator protein 1 (Homo sapiens) (UniProt P40337+Q9GZV5); assay: PROTAC activity at TAZ/VHL in human Huh-7 cells assessed as induction of TAZ degradation at 5 to 20 uM incubated for 24 hrs by Western blot analysis; assay type: cell-based; settings: dose 5-20 µM
T2 sequence (P40337 whole entry, looked up, the tested form may be a part): as the sequence (P40337 whole entry) above
T2 sequence (Q9GZV5 whole entry, looked up, the tested form may be a part): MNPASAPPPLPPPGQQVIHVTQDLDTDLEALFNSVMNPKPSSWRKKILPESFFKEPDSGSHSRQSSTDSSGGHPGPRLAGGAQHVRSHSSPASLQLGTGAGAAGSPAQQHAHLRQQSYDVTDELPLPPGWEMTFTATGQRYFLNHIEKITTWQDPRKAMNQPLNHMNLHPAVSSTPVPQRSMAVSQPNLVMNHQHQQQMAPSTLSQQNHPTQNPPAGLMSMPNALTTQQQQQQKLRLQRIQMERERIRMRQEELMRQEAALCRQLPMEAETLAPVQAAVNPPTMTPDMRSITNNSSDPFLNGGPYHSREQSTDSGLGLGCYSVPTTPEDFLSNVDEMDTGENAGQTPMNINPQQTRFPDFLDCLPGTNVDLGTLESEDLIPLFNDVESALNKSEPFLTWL

[13] = target: T2, von Hippel-Lindau disease tumor suppressor/WW domain-containing transcription regulator protein 1 (Homo sapiens); assay: PROTAC activity at TAZ/VHL in human Huh-7 cells assessed as reduction in TAZ expression incubated for 24 hrs by Western blot analysis; assay type: cell-based; settings: dose 5-20 µM
[14] = target: T1, von Hippel-Lindau disease tumor suppressor/Transcriptional coactivator YAP1; assay: PROTAC activity at YAP/VHL in human NCI-H226 cells assessed as downregulation of YAP level at 20 uM incubated at 24 hrs by Western blot analysis; assay type: cell-based
Target sequence in this assay (P40337 whole entry, looked up): as the sequence (P40337 whole entry) above
Target sequence in this assay (P46937 whole entry, looked up): as the sequence (P46937 whole entry) above

[15] = target: T1, von Hippel-Lindau disease tumor suppressor/Transcriptional coactivator YAP1; assay: PROTAC activity at YAP/VHL in human Huh-7 cells assessed as downregulation of YAP level at 20 uM incubated at 24 hrs by Western blot analysis; assay type: cell-based
[16] = target: T1, von Hippel-Lindau disease tumor suppressor/Transcriptional coactivator YAP1; assay: PROTAC activity at YAP/VHL in human NCI-H226 cells assessed as induction of YAP degradation at 20 uM incubated at 48 hrs by Western blot analysis; assay type: cell-based
[17] = target: T1, von Hippel-Lindau disease tumor suppressor/Transcriptional coactivator YAP1; assay: PROTAC activity at YAP/VHL in human Huh-7 cells assessed as induction of YAP degradation by measuring half life at 20 uM incubated at 48 hrs by Western blot analysis; assay type: cell-based
[18] = target: T1, von Hippel-Lindau disease tumor suppressor/Transcriptional coactivator YAP1; assay: PROTAC activity at YAP/VHL in human Huh-7 cells assessed as induction of YAP degradation at 20 uM incubated at 12 hrs by Western blot analysis; assay type: cell-based
[19] = target: T1, von Hippel-Lindau disease tumor suppressor/Transcriptional coactivator YAP1; assay: PROTAC activity at YAP/VHL in human Huh-7 cells assessed as induction of YAP degradation at 20 uM incubated at 24 hrs by Western blot analysis; assay type: cell-based
[20] = target: T1, von Hippel-Lindau disease tumor suppressor/Transcriptional coactivator YAP1; assay: PROTAC activity at YAP/VHL in human Huh-7 cells assessed as induction of YAP degradation at 10 uM measured for 24 hrs by Western blot analysis relative to control; assay type: cell-based
[21] = target: Transcriptional coactivator YAP1 (Homo sapiens) (UniProt P46937); assay: Inhibition of YAP nuclear localization in human Huh-7 cells assessed as decrease in integrated YAP intensity incubated for 12 hrs by immunofluorescence based microscopic analysis; assay type: cell-based; settings: dose <= 20.0 µM
Transcriptional coactivator YAP1 (Homo sapiens), sequence (P46937 whole entry): as above

Huh-7 [22] = assay: Antitumor activity against human Huh-7 cells xenografted in immunodeficient male NSG mouse assessed as tumor growth inhibition at 35 mg/kg, ip administered every 3 days for 24 days; assay type: functional; settings: Huh-7, 576 h, time 24 day, read-out: TGI
[23] = Toxicity in immunodeficient male NSG mouse xenografted with human Huh-7 cells assessed as change in body weight at 35 mg/kg, ip administered every 3 days for 24 days; assay type: organism-based; settings: in vivo, 576 h, time 24 day
Huh-7 [24] = assay: Antitumor activity against human Huh-7 cells xenografted in immunodeficient male NSG mouse assessed as suppression of YAP expression at 35 mg/kg, ip administered every 3 days for 24 days; assay type: functional, organism-based; settings: time 24.0 day
Huh-7 [25] = assay: Antitumor activity against human Huh-7 cells xenografted in immunodeficient male NSG mouse assessed as reduction in CTGF level at 35 mg/kg, ip administered every 3 days for 24 days by Western blot analysis; assay type: functional, organism-based; settings: time 24.0 day
Huh-7 [26] = assay: Antitumor activity against human Huh-7 cells xenografted in immunodeficient male NSG mouse assessed as reduction in CYR61 level at 35 mg/kg, ip administered every 3 days for 24 days by Western blot analysis; assay type: functional, organism-based; settings: time 24.0 day
[27] = Toxicity in immunodeficient male NSG mouse xenografted with human Huh-7 cells assessed as morphological abnormalities in liver at 35 mg/kg, ip administered every 3 days for 24 days by H and E staining based analysis; assay type: organism-based; settings: in vivo, 576 h, time 24 day
[28] = Toxicity in immunodeficient male NSG mouse xenografted with human Huh-7 cells assessed as change in total bilirubin level in liver at 35 mg/kg, ip administered every 3 days for 24 days; assay type: organism-based; settings: in vivo, 576 h, time 24 day
[29] = Cmax in Sprague-Dawley rat at 35 mg/kg, ip measured upto 24 hrs by LC-MS/MS analysis; assay type: ADME, organism-based; settings: in vivo
[30] = AUClast in Sprague-Dawley rat at 35 mg/kg, ip measured upto 24 hrs by LC-MS/MS analysis; assay type: ADME, organism-based; settings: in vivo
[31] = AUC (0 to infinity) in Sprague-Dawley rat at 35 mg/kg, ip measured upto 24 hrs by LC-MS/MS analysis; assay type: ADME, organism-based; settings: in vivo
[32] = MRT (0 to infinity) in Sprague-Dawley rat at 35 mg/kg, ip measured upto 24 hrs by LC-MS/MS analysis; assay type: ADME, organism-based; settings: in vivo

For `COc1cc(-c2cc(-c3ccccc3)nc3c2CC(=O)Nc2ccccc2-3)ccc1OCCOCCOCCC(=O)N[C@H](C(=O)N1C[C@H](O)C[C@H]1C(=O)N[C@@H](C)c1ccc(-c2scnc2C)cc1)C(C)(C)C`, the Activity (NCI-H2452) was “inactive”, the DC50 [1] was 4.3 µM and the Activity (NCI-H226 [2]) was “inactive”. For the same molecule, the Activity [3] was 80%, the DC50 [4] was 8.2 µM and the Emax [5] was 97%. For the same molecule, the Activity [6] was “Dose-Dependent Effect”, the Activity [7] was “Active” and the pIC50 (NCI-H226 [8]) was 4.82. For the same molecule, the “inhibition (INH)” value (NCI-H226 [9]) was 60%, the pIC50 (Huh-7 [10]) was 5.54 and the Activity (AML12) was “Non-Toxic”. For the same molecule, the Activity [11] was “Dose-Dependent Effect”, the Activity [12] was “Active” and the Activity [13] was “Dose-Dependent Effect”. The Activity [14] was “Active”, the Activity [15] was “Active” and the Activity [16] was 97%. It also gave a T1/2 [17] of 16.5 h, an Activity [18] of 10% and an Activity [19] of 65%. For the same molecule, the Activity [20] was 50%, the inhibition [21] was “Dose-Dependent Effect” and the inhibition in vivo at 35 mg/kg (Huh-7 [22]) was 82%. For the same molecule, the Activity [23] was “Non-Toxic”, the Activity (Huh-7 [24]) was “Active” and the Activity (Huh-7 [25]) was “Active”. For the same molecule, the Activity (Huh-7 [26]) was “Active”, the Activity [27] was “Non-Toxic” and the Activity [28] was “Non-Toxic”. It also gave a Cmax [29] of 0.193 µg/mL, an AUC(0-t) at 24 h [30] of 1.94 µg·h/mL and an AUC(0-inf) [31] of 2.69 µg·h/mL. It also gave an MRT inf [32] of 19.9 h.
